Here are results for ten compounds from ChEMBL document CHEMBL3227979, “11-Oxo-11H-pyrido[2,1-b]quinazoline-8-carboxylic acid, an orally active antiallergy agent” (1979).

The source made the active and inactive calls. The rule behind the calls is not given here. Bounds are passed on as bounds.

Experiment [1] concerns Rattus norvegicus. Description: Antiallergic activity in rat assessed as inhibition of ovalbumin-induced passive cutaneous anaphylaxis at 0.5 mg/kg, iv dosed along with ovalbumin challenge relative to control. The class given is functional.
The test system of experiment [2] is Rattus norvegicus. Description: Antiallergic activity in po dosed rat assessed as inhibition of ovalbumin-induced passive cutaneous anaphylaxis pretreated for 10 to 15 mins followed by ovalbumin challenge. The class given is functional. Conditions: for ED50: read-out: ID50 (the source's name).
In experiment [3] the test system is Rattus norvegicus. Description: Antiallergic activity in iv dosed rat assessed as inhibition of ovalbumin-induced passive cutaneous anaphylaxis dosed along with ovalbumin challenge. The format is functional. Conditions: read-out: ID50 (the source's name).
The subject of experiment [4] is Rattus norvegicus. Description: Antiallergic activity in rat assessed as inhibition of ovalbumin-induced passive cutaneous anaphylaxis at 5 mg/kg, iv dosed along with ovalbumin challenge relative to control. The format is functional.
In experiment [5] the test system is Rattus norvegicus. Description: Antiallergic activity in po dosed rat assessed as inhibition of antigen-induced passive cutaneous anaphylaxis. The format is functional.
Experiment [6] relates to Rattus norvegicus. Description: Antiallergic activity in iv dosed rat assessed as inhibition of antigen-induced passive cutaneous anaphylaxis. The format is functional.
The species named for the next experiment is Cavia porcellus. Description: Antagonist activity at histamine receptor in guinea pig ileum assessed as reduction in histamine-induced contractions up to 0.1 mM. The format is tissue-based.

With `O=C(O)c1ccc2nc3c(c(=O)n2c1)CCCC3`, the inhibition result in the experiment on Rattus norvegicus [1] is “inactive”.
On to `O=C([O-])c1cc(=O)c2c(OCC(O)COc3cccc4oc(C(=O)[O-])cc(=O)c34)cccc2o1.[Na+].[Na+]` [CROMOLYN SODIUM], for which the ID50 result in the experiment on Rattus norvegicus [2] was “inactive”. The ED50 in the experiment on Rattus norvegicus [3] came out at 1 mg/kg.
As a reminder, the inhibition in vivo is the percentage by which the read-out fell short of the control. Consider `O=C(O)c1ccc2nc(O)cc(=O)n2c1`, for which the inhibition in vivo at 5 mg/kg with Rattus norvegicus [4] came out at 26%.
`O=C(O)c1ccn2c(=O)c3ccccc3nc2c1`: in the experiment on Rattus norvegicus [1], the inhibition in vivo at 0.5 mg/kg stood at 21%.
For `O=C(O)c1cccn2c(=O)c3ccccc3nc12`, in the experiment with Rattus norvegicus [1], the inhibition result was “inactive”.
The same measure, in the same setting: the result for `Cc1cc(=O)n2cc(C(=O)O)ccc2n1` reads “inactive”.
For the compound `O=C(O)c1ccc2nc3cc4ccccc4cc3c(=O)n2c1`, the ED50 is < 0.1 mg/kg with Rattus norvegicus [5], 0.015 mg/kg in the experiment on Rattus norvegicus [6] and 0.1 mg/kg in the experiment with Rattus norvegicus [3]. Moreover, the inhibition entry in the experiment filed under Cavia porcellus was “inactive”. Besides, the ID50 result in the experiment with Rattus norvegicus [2] is “inactive”. In the experiment on Rattus norvegicus [1], the inhibition in vivo at 0.5 mg/kg is 100%.
Take `Cl.O=C(O)c1ccc2nc3ccccc3c(=O)n2c1`: in the experiment filed under Cavia porcellus, the inhibition result is “inactive”. For the same compound, the ED50 in the experiment on Rattus norvegicus [2] came to 2.5 mg/kg; in the experiment with Rattus norvegicus [3] it was 0.5 mg/kg. Further, the inhibition in vivo at 0.5 mg/kg in the experiment with Rattus norvegicus [1] is 45%.
For `O=C1c2ccccc2S(=O)(=O)c2cc(-c3nn[nH]n3)ccc21` [DOXANTRAZOLE], the figures for the ED50 with Rattus norvegicus [2] and in the experiment with Rattus norvegicus [3] were 5 mg/kg and 1.5 mg/kg, respectively.
Take `O=C(O)c1cccn2c(=O)c3cc4ccccc4cc3nc12`: in the experiment on Rattus norvegicus [1], the inhibition result is “inactive”.
